Laboratory results taken from US7211583B2, “7-azaindoles and the use thereof as therapeutic agents” (Elbion AG, priority 2003, dated 2007).

target: phosphodiesterase 4; experiment: Phosphodiesterase 4 inhibition, SPA with enzyme preparation from human PMNL; type: biochemical; details: cytosolic PDE4 from human PMNL, 0.5 μM [3H]-cAMP, 37° C., 30 minutes; read-out: PDE 4 inhibition IC50
Description: PDE4 activity is determined using enzyme preparations from human polymorphonuclear […] (PMNL). Human blood (buffy coats) was anticoagulated with citrate. A centrifugation at 700×g at room temperature (RT) for 20 minutes separates the platelet-rich plasma in the supernatant from the erythrocytes and leukocytes. The PMNLs for the PDE4 determination are isolated by a subsequent dextran sedimentation and in gradient centrifugation with Ficoll-Paque. After the cells have been washed twice, the erythrocytes which are still present are lysed by adding 10 ml of hypotonic buffer (155 mM NH4Cl, 10 mM NaHCO3, 0.1 mM EDTA, pH=7.4) at 4° C. within 6 minutes. The still intact PMNLs are then washed twice with PBS and lysed by ultrasound. The supernatant from a centrifugation at 4° C. and 48000×g for one hour contains the cytosolic fraction of PDE 4 and is employed for the PDE4 measurements.
The phosphodiesterase activity is assayed using a modified Amersham Pharmacia Biotech method, an SPA (scintillation proximity assay).
The reaction mixtures contain buffer (50 mM Tris-HCl (pH 7.4), 5 mM MgCl2, 100 μM cGMP), the inhibitors in variable concentrations and the appropriate enzyme preparation. The reaction is started by adding the substrate, 0.5 μM [^3H]-cAMP. The final volume is 100 μl. Test substances are made up as stock solutions in DMSO. The DMSO concentration in the reaction mixture is 1% v/v. The PDE activity is unaffected at this DMSO concentration. After the reaction has been started by adding substrate, the samples are incubated at 37° C. for 30 minutes. The reaction is stopped by adding a defined amount of SPA beads, and the samples are counted after one hour in a Beta counter. The nonspecific enzymic activity (the blank) is determined in the presence of 100 μM rolipram and subtracted from the test results. The incubation mixtures for the PDE4 assay contain 100 μM cGMP in order to inhibit any contamination by PDE 3.

SMILES	IC50 [nM]
O=C(Nc1c(Cl)c[n+]([O-])cc1Cl)C(=O)c1cn(Cc2ccc(F)cc2)c2c1ccc[n+]2[O-] [Compound 4, N-(3,5-Dichloro-1-oxopyridin-4-yl)-[1-(4-fluorobenzyl)-7-oxo-7-azaindol-3-yl]glyoxylamide]	751
O=C(Nc1c(Cl)cccc1Cl)C(=O)c1cn(Cc2ccccc2Cl)c2c1ccc[n+]2[O-] [Compound 2, N-(2,6-Dichlorophenyl)-[1-(2-chlorobenzyl)-7-oxo-7-azaindol-3-yl]glyoxylamide]	48
O=C(Nc1c(Cl)c[n+]([O-])cc1Cl)C(=O)c1cn(Cc2ccc(F)cc2)c2ncccc12 [Compound 3, N-(3,5-Dichloro-1-oxopyridin-4-yl)-[1-(4-fluorobenzyl)-7-azaindol-3-yl]glyoxylamide]	8
O=C(Nc1c(Cl)cncc1Cl)C(=O)c1cn(Cc2ccc(F)cc2)c2c1ccc[n+]2[O-] [Compound 1, N-(3,5-Dichloropyridin-4-yl)-[1-(4-fluorobenzyl)-7-oxo-7-azaindol-3-yl]glyoxylamide]	52
